In patent publication US20240423207A1, “PICOLINAMIDE COMPOUNDS WITH FUNGICIDAL ACTIVITY” (CORTEVA AGRISCIENCE LLC, priority 2014, published 2024):
Like-named read-outs stand apart in the source and are kept apart here.

Experiments:
[1] = tested on: Mycosphaerella graminicola; Anamorph: Septoria tritici; test: Leaf Blotch of Wheat (SEPTTR) fungicidal activity on wheat seedlings; type: in vivo; conditions: Zymoseptoria tritici; for pest or weed control at 121.5 g/ha: Low Volume, 121.5 g/H; for pest or weed control at 100 ppm: High Volume
Procedure: Example A: Evaluation of Fungicidal Activity: Leaf Blotch of Wheat (Mycosphaerella graminicola; Anamorph: Septoria tritici; Bayer code […]): Technical grades of materials were dissolved in acetone, which were then mixed with nine volumes of water (H2O) containing 110 ppm Triton X-100. The fungicide solutions were applied onto wheat seedlings using an automated booth sprayer to run-off. All sprayed plants were allowed to air dry prior to further handling. All fungicides were evaluated using the aforementioned method for their activity vs. all target diseases, unless stated otherwise. Wheat leaf blotch and brown rust activity were also evaluated using track spray applications, in which case the fungicides were formulated as EC formulations, containing 0.1% Trycol 5941 in the spray solutions. Wheat plants (variety Yuma) were grown from seed in a greenhouse in 50% mineral soil/50% soil-less Metro mix until the first leaf was fully emerged, with 7-10 seedlings per pot. These plants were inoculated with an aqueous spore suspension of Septoria tritici either prior to or after fungicide treatments. After inoculation the plants were kept in 100% relative humidity (one day in a dark dew chamber followed by two to three days in a lighted dew chamber at 20° C.) to permit spores to germinate and infect the leaf. The plants were then transferred to a greenhouse set at 20° C. for disease to develop. When disease symptoms were fully expressed on the 1st leaves of untreated plants, infection levels were assessed on a scale of 0 to 100 percent disease severity. Percent disease control was calculated using the ratio of disease severity on treated plants relative to untreated plants.

[2] = tested on: Puccinia triticina; Synonym: Puccinia recondita f sp. tritici; test: Wheat Brown Rust (PUCCRT) fungicidal activity on wheat seedlings; type: in vivo; conditions: for pest or weed control at 121.5 g/ha: Low Volume, 121.5 g/H; for pest or weed control at 100 ppm: High Volume
Procedure: Technical grades of materials were dissolved in acetone, which were then mixed with nine volumes of water (H2O) containing 110 ppm Triton X-100. The fungicide solutions were applied onto wheat seedlings using an automated booth sprayer to run-off. All sprayed plants were allowed to air dry prior to further handling. All fungicides were evaluated using the aforementioned method for their activity vs. all target diseases, unless stated otherwise. Wheat leaf blotch and brown rust activity were also evaluated using track spray applications, in which case the fungicides were formulated as EC formulations, containing 0.1% Trycol 5941 in the spray solutions. Wheat plants (variety Yuma) were grown from seed in a greenhouse in 50% mineral soil/50% soil-less Metro mix until the first leaf was fully emerged, with 7-10 seedlings per pot. These plants were inoculated with an aqueous spore suspension of Septoria tritici either prior to or after fungicide treatments. After inoculation the plants were kept in 100% relative humidity (one day in a dark dew chamber followed by two to three days in a lighted dew chamber at 20° C.) to permit spores to germinate and infect the leaf. The plants were then transferred to a greenhouse set at 20° C. for disease to develop. When disease symptoms were fully expressed on the 1st leaves of untreated plants, infection levels were assessed on a scale of 0 to 100 percent disease severity. Percent disease control was calculated using the ratio of disease severity on treated plants relative to untreated plants. Example B: Evaluation of Fungicidal Activity: Wheat Brown Rust (Puccinia triticina; Synonym: Puccinia recondita f sp. tritici; Bayer code PUCCRT): Wheat plants (variety Yuma) were grown from seed in a greenhouse in 50% mineral soil/50% soil-less Metro mix until the first leaf was fully emerged, with 7-10 seedlings per pot. These plants were inoculated with an aqueous spore suspension of Puccinia triticina either prior to or after fungicide treatments. After inoculation the plants were kept in a dark dew room at 22° C. with 100% relative humidity overnight to permit spores to germinate and infect the leaf. The plants were then transferred to a greenhouse set at 24° C. for disease to develop. Fungicide formulation, application and disease assessment followed the procedures as described in the Example A.

[3] = 24 h, 1 Day Protectant, read-out: SEPTTR 1DP disease control
[4] = 72 h, 3 Day Curative, read-out: SEPTTR 3DC disease control
[5] = 24 h, 1 Day Protectant, read-out: PUCCRT 1DP disease control
[6] = 72 h, 3 Day Curative, read-out: PUCCRT 3DC disease control

Compound | pest or weed control at 121.5 g/ha [1, 3] | pest or weed control at 121.5 g/ha [1, 4] | pest or weed control at 121.5 g/ha [2, 5] | pest or weed control at 121.5 g/ha [2, 6] | pest or weed control at 100 ppm [1, 3] | pest or weed control at 100 ppm [1, 4] | pest or weed control at 100 ppm [2, 5] | pest or weed control at 100 ppm [2, 6]
COc1ccnc(C(=O)N[C@@H](C)C(=O)O[C@@H](C)C(c2ccc(Br)cc2)c2ccc(Br)cc2)c1OCOC(C)=O [Cmpd 169] | > 80% | > 80% | > 80% | < 80% | – | – | – | –
COc1ccnc(C(=O)N[C@@H](C)C(=O)OC(C)C2c3ccccc3Oc3ccccc32)c1O (some centres unmarked) [Cmpd 102] | – | – | – | – | < 80% | < 80% | < 80% | –
COc1ccnc(C(=O)N[C@@H](C)C(=O)O[C@@H](C)[C@@H](c2ccccc2)c2ccc(C(F)(F)F)cc2)c1OCOC(C)=O [Cmpd 175] | > 80% | > 80% | > 80% | > 80% | – | – | – | –
COc1ccnc(C(=O)N[C@@H](C)C(=O)O[C@@H](C)C(c2ccc(C)cc2)c2ccc(C)cc2)c1OCOC(C)=O [Cmpd 171] | > 80% | > 80% | > 80% | > 80% | – | – | – | –
COc1ccnc(C(=O)N[C@@H](C)C(=O)O[C@@H](C)C(c2ccc(C)cc2)c2ccc(C)cc2)c1OC(=O)C(C)C [Cmpd 168] | > 80% | > 80% | > 80% | < 80% | – | – | – | –
COc1ccnc(C(=O)N[C@@H](C)C(=O)OC(C)C2c3ccccc3-c3ccccc32)c1OCOC(C)=O (some centres unmarked) [Cmpd 163] | < 80% | > 80% | < 80% | – | – | – | – | –
COc1ccc(C(c2ccc(OC)cc2)[C@H](C)OC(=O)[C@H](C)NC(=O)c2nccc(OC)c2OC(C)=O)cc1 [Cmpd 155] | > 80% | > 80% | > 80% | > 80% | – | – | – | –
COc1ccnc(C(=O)N[C@@H](C)C(=O)O[C@@H](C)C(O)(c2ccc(Cl)cc2F)c2ccc(Cl)cc2F)c1OCOC(C)=O [Cmpd 193] | > 80% | > 80% | < 80% | – | – | – | – | –
CCOC(c1ccccc1)(c1ccccc1)[C@H](C)OC(=O)[C@H](C)NC(=O)c1nccc(OC)c1OCOC(C)=O [Cmpd 147] | < 80% | > 80% | < 80% | < 80% | – | – | – | –
COc1ccnc(C(=O)N[C@@H](C)C(=O)O[C@@H](C)C(O)(c2ccccc2F)c2ccccc2F)c1OCOC(C)=O [Cmpd 196] | > 80% | < 80% | – | – | – | – | – | –
COc1ccnc(C(=O)N[C@@H](C)C(=O)O[C@@H](C)C(c2ccc(Cl)c(C)c2)c2ccc(Cl)c(C)c2)c1O [Cmpd 129] | – | – | – | – | > 80% | > 80% | > 80% | < 80%
COc1ccnc(C(=O)N[C@@H](C)C(=O)O[C@@H](C)C(c2ccc(F)cc2)c2ccc(F)cc2)c1OC(=O)C1CC1 [Cmpd 210] | > 80% | > 80% | > 80% | < 80% | – | – | – | –
COc1ccnc(C(=O)N[C@@H](C)C(=O)O[C@@H](C)C(F)(c2ccccc2)c2ccccc2)c1OCOC(C)=O [Cmpd 153] | > 80% | > 80% | < 80% | < 80% | – | – | – | –
COc1cccc(C(c2cccc(OC)c2)[C@H](C)OC(=O)[C@H](C)NC(=O)c2nccc(OC)c2OCOC(C)=O)c1 [Cmpd 192] | > 80% | > 80% | > 80% | > 80% | – | – | – | –
COc1ccnc(C(=O)N[C@@H](C)C(=O)O[C@@H](C)C(O)(c2ccc(Cl)c(F)c2)c2ccc(Cl)c(F)c2)c1O [Cmpd 128] | – | – | – | – | > 80% | < 80% | < 80% | –
CC[C@H](NC(=O)c1nccc(OC)c1O)C(=O)O[C@@H](C)C(c1ccc(F)cc1)c1ccc(F)cc1 [Cmpd 114] | – | – | – | – | > 80% | > 80% | > 80% | > 80%

Compound | pest or weed control at 121.5 g/ha [1, 3] | pest or weed control at 121.5 g/ha [1, 4] | pest or weed control at 121.5 g/ha [2, 5] | pest or weed control at 121.5 g/ha [2, 6] | pest or weed control at 100 ppm [1, 3] | pest or weed control at 100 ppm [1, 4] | pest or weed control at 100 ppm [2, 5] | pest or weed control at 100 ppm [2, 6]
COc1ccc(C(c2ccc(OC)cc2)[C@H](C)OC(=O)[C@H](C)NC(=O)c2nccc(OC)c2O)cc1 [Cmpd 98] | – | – | – | – | > 80% | > 80% | > 80% | > 80%
COc1ccnc(C(=O)N[C@@H](C)C(=O)O[C@@H](C)C(c2ccc(Cl)c(C)c2)c2ccc(Cl)c(C)c2)c1OCOC(C)=O [Cmpd 203] | > 80% | > 80% | > 80% | < 80% | – | – | – | –
COc1ccnc(C(=O)N[C@@H](C)C(=O)O[C@@H](C)C(c2cccs2)c2cccs2)c1O [Cmpd 91] | – | – | – | – | > 80% | – | > 80% | < 80%
COc1ccnc(C(=O)N[C@H](C(=O)O[C@@H](C)C(c2ccc(F)cc2)c2ccc(F)cc2)C(C)C)c1O [Cmpd 115] | – | – | – | – | > 80% | > 80% | < 80% | –
COc1ccnc(C(=O)N[C@@H](C)C(=O)O[C@@H](C)C(c2ccc(Br)cc2)c2ccc(Br)cc2)c1O [Cmpd 103] | – | – | – | – | > 80% | > 80% | > 80% | < 80%
COc1ccnc(C(=O)N[C@@H](C)C(=O)OC(C)C2c3ccccc3Oc3ccccc32)c1OCOC(C)=O (some centres unmarked) [Cmpd 164] | < 80% | – | – | – | – | – | – | –
COc1ccnc(C(=O)N[C@@H](C)C(=O)O[C@@H](C)C(O)(c2ccc(Cl)c(F)c2)c2ccc(Cl)c(F)c2)c1OCOC(C)=O [Cmpd 202] | > 80% | > 80% | – | – | – | – | – | –
COc1ccnc(C(=O)N[C@@H](C)C(=O)OC(C)C2c3ccccc3Oc3ccccc32)c1OC(C)=O (some centres unmarked) [Cmpd 162] | – | < 80% | – | – | – | – | – | –
COc1ccnc(C(=O)N[C@@H](C)C(=O)O[C@@H](C)C(O)(c2ccccc2F)c2ccccc2F)c1O [Cmpd 122] | – | – | – | – | < 80% | < 80% | – | –
COc1ccnc(C(=O)N[C@@H](C)C(=O)O[C@@H](C)C(O)(c2ccc(Cl)cc2F)c2ccc(Cl)cc2F)c1O [Cmpd 119] | – | – | – | – | > 80% | < 80% | – | –
COc1ccnc(C(=O)N[C@@H](C)C(=O)OC(C)C2c3ccccc3-c3ccccc32)c1OC(C)=O (some centres unmarked) [Cmpd 161] | < 80% | > 80% | – | – | – | – | – | –
COc1ccnc(C(=O)N[C@@H](C)C(=O)OC(C)C2c3ccccc3-c3ccccc32)c1O (some centres unmarked) [Cmpd 101] | – | – | – | – | < 80% | – | – | –
COc1ccnc(C(=O)N[C@@H](C)C(=O)O[C@@H](C)C(c2ccc(-c3ccccc3)cc2)c2ccc(-c3ccccc3)cc2)c1OCOC(C)=O [Cmpd 181] | < 80% | < 80% | – | – | – | – | – | –
C[C@H](NC(=O)c1ccccc1O)C(=O)O[C@@H](C)C(c1ccc(F)cc1)c1ccc(F)cc1 [Cmpd 112] | – | – | – | – | < 80% | < 80% | – | –
CC(=O)OCOc1ccccc1C(=O)N[C@@H](C)C(=O)O[C@@H](C)C(c1ccc(F)cc1)c1ccc(F)cc1 [Cmpd 180] | < 80% | – | – | – | – | – | – | –
